These results are taken from patent publication US7777070B2, “Acyloxyalkyl carbamate prodrugs of tranexamic acid, methods of synthesis and use” (XenoPort, Inc., priority 2005, dated 2010).

Where two headings read alike, the source gives them in different places.

For series [1] the following is noted: cited from earlier work.
For series [2] the following is noted: women with menorrhagia; cited from earlier work.
Series [3] in a line: Pharmacokinetics of tranexamic acid after administration of tranexamic acid or prodrug to rats. It counts as in vivo, Sprague-Dawley rats. As to conditions: male, Sprague-Dawley, whole blood, rat; for bioavailability: versus i.v. tranexamic acid AUCinf 22.2 hr·μg/mL, read-out: F* (bioavailability of tranexamic acid); for Cmax: read-out: Cmax; for half-life: read-out: T1/2-λ (converted); for Tmax: read-out: Tmax. Here is the method:
Tranexamic acid or a tranexamic acid prodrug of the present disclosure was administered as an intravenous bolus injection (i.v.), by oral gavage (p.o.), or by intracolonic (i.c.) administration via an indwelling catheter in the ascending colon to groups of four to six adult male Sprague-Dawley rats (weight approximately 250 g). Animals were fasted overnight before the study and for 4 hours post-dosing and were conscious at the time of the experiment. When administered intravenously, tranexamic acid was administered as a solution in water at a dose equivalent to 16 mg (0.1 mmol) of tranexamic acid per kg body weight. Prodrugs were orally or intracolonically administered as a suspension in 0.5% methyl cellulose in 0.1% Tween 80 at a dose equivalent to 16 mg (0.1 mmol) of tranexamic acid per kg body weight. Blood samples (300 μL) were obtained via a jugular vein cannula at intervals over 8 hours after oral dosing. Blood was quenched immediately using methanol and then was frozen at −80° C. until analyzed.
The following procedure was used to prepared blood samples for analysis:
1. Rat blood (100 μL) was collected at different times into K2EDTA tubes, 300 μL of methanol, and the mixture was vortexed to mix the ingredients.
2. Blank rat blood (90 μL) was quenched with 300 μL of methanol. Then ten μL of a standard stock solution (0.04, 0.2, 1, 5, 25, and 100 μg/mL) were added to the tube individually. Then 20 μL of p-chlorophenylalanine (5 μg/mL in 50% methanol) was added to each tube to make up a final calibration standard (0.004, 0.02, 0.1, 0.5, 2.5, and 10 μg/mL). The samples were vortexed and centrifuged at 14,000 rpm for 20 min.
3. To the quenched blood samples were added 20 μL of p-chlorophenylalanine (5 μg/mL in 50% methanol), the samples were vortexed and centrifuged at 14,000 rpm for 20 min.
4. The supernatant was analyzed by LC/MS/MS.
The following method was used for LC/MS/MS Analysis of the prepared blood samples. An API 4000 or 2000 LC/MS/MS spectrometer equipped with Agilent 1100 binary pumps and a CTC HTS-PAL autosampler were used in the analysis. A ThermoHypersil-BetaSil C18, 100×4.6 mm, 5 μm column was used during the analysis. The mobile phase for the analysis of tranexamic acid and prodrug was (A) 0.1% formic acid in water, and (B) 0.1% formic acid in acetonitrile. The gradient condition was: 2% eluent-B to 95% eluent-B for 2.5 min, then to 98% eluent-B to 4.0 min. At 4.1 min, it was returned to 2% eluent-B and maintained at 2% eluent-B till 6.0 min. The flow rate was 1 mL/min. An ESI source was used on the API 4000. The analysis of tranexamic acid was performed in positive ion mode for and negative ion mode was used for analysis of tranexamic acid prodrugs.
The MRM transition for each analyte was optimized using standard solutions. 20 μL of the sample was injected. Non-compartmental analysis was performed using WinNonlin (v.3.1 Professional Version, Pharsight Corporation, Mountain View, Calif.) on individual animal profiles. Summary statistics on major parameter estimates was performed for Cmax (peak observed concentration following dosing), Tmax (time to maximum concentration is the time at which the peak concentration was observed), AUC(0-t) (area under the serum concentration-time curve from time zero to last collection time, estimated using the log-linear trapezoidal method), AUC(0-∞), (area under the serum concentration time curve from time zero to infinity, estimated using the log-linear trapezoidal method to the last collection time with extrapolation to infinity), and t1/2 (terminal half-life).
The oral or intracolonic bioavailability (F) of tranexamic acid was determined by comparing the area under the tranexamic acid concentration vs. time curve (AUC) following oral or intracolonic administration of tranexamic acid or prodrug with the AUC of the tranexamic acid concentration vs. time curve following intravenous administration of tranexamic acid on a dose normalized basis. […]

Series [4] relates to Caco-2 cells. Put plainly: Caco-2 cellular permeability. As to conditions: ratio of Papp apical to basolateral / basolateral to apical. In general terms: Caco-2 monolayers are a common model of the intestinal barrier.
Protocol: (§1) For example, passive permeability can be evaluated by examining the flux of a prodrug across a cultured polarized cell monolayer (e.g., Caco-2 cells).
(§2) Caco-2 cells obtained from continuous culture (passage less than 28) were seeded at high density onto Transwell polycarbonate filters. Cells were maintained with DMEM/10% fetal bovine serum, 1 mM nonessential amino acids, and 6 mM L-Gln, 5% CO2/95% O2, at 37° C. until the day of the experiment. Permeability studies were conducted at pH 6.5 apically (in 50 mM MES buffer containing 1 mM CaCl2, 1 mM MgCl2, 150 mM NaCl, 3 mM KCl, 1 mM NaH2PO4, 5 mM glucose) and pH 7.4 basolaterally (in Hanks' balanced salt solution containing 10 mM HEPES) in the presence of efflux pump inhibitors (250 μM MK-571 and 250 μM Verapamil). Inserts were placed in 12 or 24 well plates containing buffer and incubated for 30 min at 37° C. Prodrug (200 μM) was added to the apical or basolateral compartment (donor) and concentrations of prodrug and/or released parent drug in the opposite compartment (receiver) were determined at intervals over 1 hour using LC/MS/MS. Values of apparent permeability (Papp) were calculated using the equation: Papp=Vr(dC/dt)//(ACo) where Vr is the volume of the receiver compartment in mL; dC/dt is the total flux of prodrug and parent drug (μM/sec), determined from the slope of the plot of concentration in the receiver compartment versus time; C0 is the initial concentration of prodrug in μM; and A is the surface area of the membrane in cm^2.
For series [5], the system named is Caco-2 cells.
Protocol: as §1, §2
Setting [6] is: po, tranexamic acid in blood, p.o., dose equivalent to 16 mg/kg, mean (SD).
Setting [7] is: po, tranexamic acid in blood, dose equivalent to 16 mg/kg, mean (SD).
Where [8] appears, read: tranexamic acid in blood, i.c., dose equivalent to 16 mg/kg, mean (SD).

Broadly, the AUC(0-inf) is the area under the concentration-time curve extrapolated to infinity. A word on the bioavailability: it is dose-corrected exposure relative to a reference, in per cent. What is called Cmax is the highest concentration seen after dosing. What is called Tmax is the time at which the peak concentration occurs. Usually AUC(0-t) stands for exposure summed from dosing to a finite time, without extrapolation to infinity. Take `NC[C@H]1CC[C@H](C(=O)O)CC1` [Compound 1, trans-4-(aminomethyl)-cyclohexanecarboxylic acid, reference compound]: in series [1] (rectal administration in humans (Almer et al.)), the “absorption following rectal administration” value is recorded as “poorly absorbed”. For the same compound, the oral bioavailability in series [1] (tranexamic acid, oral) is recorded as ~30%. In addition, in series [1] (tranexamic acid), the terminal elimination half-life is ~2 h. The “reduction of menstrual blood loss” value in series [2] is on record as ~50%. Further, the AUC(0-inf) is 22200 ng·h/mL in series [3] (iv, intravenously administered tranexamic acid, 16 mg/kg); 7800 ng·h/mL in series [3] (setting [7]); 800 ng·h/mL in series [3] (setting [8]). Besides, the bioavailability came to 5% in series [3] (other: intracolonic, 16 mg/kg, i.c., mean (SD)) and 37% in series [3] (po, 16 mg/kg, p.o., mean (SD)). The Cmax in series [3] (po, tranexamic acid in blood, p.o., dose equivalent to 16 mg tranexamic acid per kg, mean (SD)) came to 2060 ng/mL; in series [3] (tranexamic acid in blood, i.c. (intracolonic), dose equivalent to 16 mg/kg, mean (SD)) it was 220 ng/mL. The half-life was 114 min in series [3] (setting [6]) and 102 min in series [3] (setting [8]). For the same compound, the Tmax in series [3] (setting [6]) turned out to be 1.1 h; in series [3] (setting [8]), 3.1 h. Besides, the AUC(0-t) in series [3] (setting [7]) worked out at 7300 ng·h/mL; in series [3] (setting [8]) it was 600 ng·h/mL. In addition, the “Ratio A-B/B-A” value in the series with Caco-2 cells [4] is given as 1.3.
On to `CC(OC(=O)NC[C@H]1CC[C@H](C(=O)[O-])CC1)OC(=O)C(C)C.[Na+]` (stereo partly drawn) [Compound 14, Sodium trans-4-{[1-(2-Methylpropanoyloxy)ethoxycarbonyl]-aminomethyl}-Cyclohexanecarboxylate], for which the “Ratio A-B/B-A” value with Caco-2 cells [5] is recorded as 3.4.
